Tested on: Mus musculus
Assay: Antihypoxic activity in fasted Kunming mouse assessed as survival time of mouse under hypoxic condition at 80 mg/kg administered for 5 days (reference value: 2199 +/-217 secs)
Format: functional

| Structure (SMILES) | Time |
| --- | --- |
| CCCCCN(c1nnc(S(N)(=O)=O)s1)S(=O)(=O)c1ccccc1 | 2716 s |
| Cc1ccc(CN(c2nnc(S(N)(=O)=O)s2)S(=O)(=O)c2ccc(C)cc2)cc1 | 2512 s |
| Cc1ccc(S(=O)(=O)N(c2nnc(S(N)(=O)=O)s2)C(C)C)cc1 | 2426 s |
| CCN(c1nnc(S(N)(=O)=O)s1)S(=O)(=O)c1ccccc1 | 2716 s |
| CCCN(c1nnc(S(N)(=O)=O)s1)S(=O)(=O)c1ccccc1 | 3135 s |
| Cc1ccc(S(=O)(=O)N(CCc2ccccc2)c2nnc(S(N)(=O)=O)s2)cc1 | 2441 s |
| CCCCN(c1nnc(S(N)(=O)=O)s1)S(=O)(=O)c1ccccc1 | 2977 s |
| Cc1ccc(S(=O)(=O)N(CC(C)C)c2nnc(S(N)(=O)=O)s2)cc1 | 3486 s |
| Cc1ccc(S(=O)(=O)N(Cc2ccc(F)cc2)c2nnc(S(N)(=O)=O)s2)cc1 | 2860 s |
| CC(=O)Nc1nnc(S(N)(=O)=O)s1 [ACETAZOLAMIDE] | 2726 s |
| Cc1ccc(S(=O)(=O)N(Cc2ccccc2)c2nnc(S(N)(=O)=O)s2)cc1 | 2582 s |
